Assay results published in US20080249113A1, “Fungicidal Mixtures” (priority 2004, published 2008).

Experiments:
Assay type in all cases: in vivo
Alternaria solani = assay: Use Example 5: early blight of tomato caused by Alternaria solani, synergism test (Abbot efficacy, Colby); settings: individual active compound; for pest or weed control at 4 ppm: 4 ppm in the spray liquor
Description: (§1) For use examples 3 to 9, the active compounds, separately or jointly, were prepared as a stock solution comprising 0.25% by weight of active compound in acetone or DMSO. 1% by weight of the emulsifier Uniperol® EL (wetter having emulsifying and dispersant action based on ethoxylated alkylphenols) was added to this solution, and the mixture was diluted with water to the desired concentration.
(§2) The active compounds fosetyl-AI, epoxiconazole, triticonazole and pyraclostrobin were applied in their commercial formulation.
Leaves of potted plants of the cultivar “Goldene Königin” were sprayed to run off point with an aqueous suspension having the active compound concentration stated below. The next day, the leaves were infected with an aqueous spore suspension of Alternaria solani in a 2% strength biomalt solution having a density of 0.17×10^6 spores/ml. The plants were then placed in a water vapor-saturated chamber at temperatures between 20 and 22° C. After 5 days, the disease on the untreated but infected control plants had developed to such an extent that the infection could be determined visually in %.
A further test according to use example 3 was evaluated as follows:
(§3) The visually determined percentages of infected leaf areas were converted into efficacies in % of the untreated control:
(§4) The efficacy (E) is calculated as follows using Abbot's formula: […]
(§5) α corresponds to the fungicidal infection of the treated plants in % and β corresponds to the fungicidal infection of the untreated (control) plants in %
(§6) […]; The expected efficacies of mixtures of active compounds were determined using Colby's formula (Colby, S.R. “Calculating synergistic and antagonistic responses of herbicide combinations”, Weeds, 15, 20-22, 1967) and compared with the observed efficacies.
(§7) E=x+y−x·y/100 • E expected efficacy, expressed in % of the untreated control, when using the mixture of the active compounds A and B at the concentrations a and b • x efficacy, expressed in % of the untreated control, when using the active compound A at the concentration a • y efficacy, expressed in % of the untreated control, when using the active compound B at the concentration b

Pyrenophora teres = assay: Use Example 7: net blotch of barley caused by Pyrenophora teres, 1 day protective application, synergism test; settings: individual active compound
Description: as §1
Leaves of potted barley seedlings were sprayed to run off with an aqueous suspension having the active compound concentration stated below. 24 hours after the spray coating had dried on, the test plants were inoculated with an aqueous spore suspension of Pyrenophora [syn. Drechslera ] teres, the net blotch pathogen. The test plants were then placed in a greenhouse at temperatures between 20 and 24° C. and 95 to 100% relative atmospheric humidity. After 6 days, the extent of the development of the disease was determined visually in % infection of the entire leaf area.
as §3, §4, §5, §6, §7
In a further test according to use example 4, the following results were obtained: […]

Puccinia recondita = assay: Use Example 6: protective activity against Puccinia recondita on wheat (brown rust of wheat); settings: individual active compound
Description: as §1, §2, §3, §4, §5, §6, §7
Leaves of potted wheat seedlings of the cultivar “Kanzler” were sprayed to run off point with an aqueous suspension having the active compound concentration stated below. The next day, the treated plants were inoculated with a spore suspension of brown rust of wheat (Puccinia recondite). The plants were then placed in a chamber with high atmospheric humidity (90 to 95%) at 20 to 22° C. for 24 hours. During this time, the spores germinated and the germ tubes penetrated into the leaf tissue. The next day, the test plants were returned to the greenhouse and cultivated at temperatures between 20 and 22° C. and 65 to 70% relative atmospheric humidity for a further 7 days. The extent of the rust fungus development on the leaves was then determined visually.

[1] = Alternaria solani, 120 h, read-out: Efficacy in % of the untreated control
[2] = Alternaria solani, 120 h, 16 ppm in the spray liquor, read-out: Efficacy in % of the untreated control
[3] = Alternaria solani, 120 h, 63 ppm in the spray liquor, read-out: Efficacy in % of the untreated control

Compound: Fc1ccc([C@]2(Cn3cncn3)O[C@H]2c2ccccc2Cl)cc1 (racemic) [epoxiconazole, (2RS, 3SR)-1-[3-(2-chlorophenyl)-2,3-epoxy-2-(4-fluorophenyl)propyl]-1H-1,2,4-triazole]
- pest or weed control at 4 ppm (Alternaria solani; [1]): 56%

Compound: COCC(=O)N(c1c(C)cccc1C)C(C)C(=O)OC (racemic) [metalaxyl, methyl N-(methoxyacetyl)-N-(2,6-xylyl)-DL-alaninate]
- pest or weed control at 4 ppm (Alternaria solani; [1]): 0%

Compound: Cc1ccccc1-c1c(Cl)nc2ncnn2c1N1CCC(C)CC1 [Compound A-31, 5-chloro-6-(2-methylphenyl)-7-(4-methylpiperidin-1-yl)-1,2,4-triazolo[1,5a]pyrimidine]
- Efficacy in % of the untreated control (Pyrenophora teres; 16 ppm in the spray liquor): 33%
- Efficacy in % of the untreated control (Pyrenophora teres; 63 ppm in the spray liquor): 67%
- Efficacy in % of the untreated control (Puccinia recondita; 16 ppm in the spray liquor): 22%
- Efficacy in % of the untreated control (Alternaria solani; 63 ppm in the spray liquor): 78%

Compound: O=C(Nc1ccccc1-c1ccc(Cl)cc1)c1cccnc1Cl [boscalid, 2-chloro-N-(4′-chlorobiphenyl-2-yl)nicotinamide]
- pest or weed control at 16 ppm (Alternaria solani; [2]): 22%

Compound: N#Cc1c(Cl)c(Cl)c(Cl)c(C#N)c1Cl [chlorothalonil, 2,4,5,6-tetrachloroisophthalonitrile]
- Efficacy in % of the untreated control (Puccinia recondita; 16 ppm in the spray liquor): 17%
- pest or weed control at 63 ppm (Alternaria solani; [3]): 0%

Compound: Cc1ccc(-c2c(Cl)nc(C#N)n2S(=O)(=O)N(C)C)cc1 [cyazofamid, 4-chloro-2-cyano-N,N-dimethyl-5-p-tolylimidazole-1-sulfonamide]
- pest or weed control at 16 ppm (Alternaria solani; [2]): 0%
- pest or weed control at 63 ppm (Alternaria solani; [3]): 0%
- pest or weed control at 250 ppm (Alternaria solani; Alternaria solani, 120 h, 250 ppm in the spray liquor, read-out: Efficacy in % of the untreated control): 0%

Compound: COc1ccc(C(=CC(=O)N2CCOCC2)c2ccc(Cl)cc2)cc1OC [dimethomorph, 3-(4-chlorophenyl)-3-(3,4-dimethoxyphenyl)-1-morpholin-4-ylpropenone]
- Efficacy in % of the untreated control (Puccinia recondita; 16 ppm in the spray liquor): 0%
- Efficacy in % of the untreated control (Puccinia recondita; 63 ppm in the spray liquor): 0%

Compound: N#Cc1sc2c(=O)c3ccccc3c(=O)c=2sc1C#N [dithianon, 5,10-dioxo-5,10-dihydronaphtho[2,3-b][1,4]dithiine-2,3-dicarbonitrile]
- Efficacy in % of the untreated control (Pyrenophora teres; 16 ppm in the spray liquor): 0%

Compound: CC(Cc1ccc(C(C)(C)C)cc1)CN1CC(C)OC(C)C1 (centres unmarked) [fenpropimorph, 4-[3-(4-tert-butylphenyl)-2-methylpropyl]-2,6-dimethylmorpholine]
- Efficacy in % of the untreated control (Puccinia recondita; 16 ppm in the spray liquor): 0%
- Efficacy in % of the untreated control (Puccinia recondita; 63 ppm in the spray liquor): 0%

Compound: O=C1c2ccccc2C(=O)N1SC(Cl)(Cl)Cl [folpet, 2-trichloromethylsulfanylisoindole-1,3-dione]
- pest or weed control at 63 ppm (Alternaria solani; [3]): 0%

Compound: CO/N=C(/C(=O)OC)c1ccccc1COc1ccccc1C [kresoxim-methyl, methyl (E)-methoxyimino[α-(otolyloxy)-otolyl]acetate]
- Efficacy in % of the untreated control (Puccinia recondita; 1 ppm in the spray liquor): 0%
- Efficacy in % of the untreated control (Puccinia recondita; 4 ppm in the spray liquor): 0%

Compound: CCCN(CCOc1c(Cl)cc(Cl)cc1Cl)C(=O)n1ccnc1 [prochloraz, N-propyl-N-[2-(2,4,6-trichlorophenoxy)ethyl]imidazole-1-carboxamide]
- Efficacy in % of the untreated control (Puccinia recondita; 4 ppm in the spray liquor): 0%
- Efficacy in % of the untreated control (Puccinia recondita; 16 ppm in the spray liquor): 0%

Compound: OC(Cc1ccccc1Cl)(Cn1nc[nH]c1=S)C1(Cl)CC1 (centres unmarked) [prothioconazole, 2-[2-(1-chlorocyclopropyl)-3-(2-chlorophenyl)-2-hydroxypropyl]-2,4-dihydro-[1,2,4]triazole-3-thione]
- pest or weed control at 4 ppm (Alternaria solani; [1]): 22%

Compound: Cc1cc(C)nc(Nc2ccccc2)n1 [pyrimethanil, 4,6-dimethylpyrimidin-2-ylphenylamine]
- Efficacy in % of the untreated control (Puccinia recondita; 16 ppm in the spray liquor): 0%

Compound: CC1(C)CCC(=Cc2ccc(Cl)cc2)C1(O)Cn1cncn1 (centres unmarked) [triticonazole, 5-(4-chlorobenzylidene)-2,2-dimethyl-1-[1,2,4]triazol-1-ylmethylcyclo-pentanol]
- pest or weed control at 4 ppm (Alternaria solani; [1]): 0%

Compound: manganese ethylenebis(dithiocarbamate) zinc complex [mancozeb]
- Efficacy in % of the untreated control (Puccinia recondita; 16 ppm in the spray liquor): 0%
- Efficacy in % of the untreated control (Puccinia recondita; 63 ppm in the spray liquor): 0%
- Efficacy in % of the untreated control (Alternaria solani; 16 ppm in the spray liquor): 0%
- Efficacy in % of the untreated control (Alternaria solani; 63 ppm in the spray liquor): 0%
